Key:
[1] = Cytotoxicity against human HepG2 cells assessed as decrease in cell viability after 20 hrs by resazurin based fluorescence assay; assay type: toxicity
[2] = Cytotoxicity against human HEK293 cells assessed as decrease in cell viability after 20 hrs by resazurin based fluorescence assay; assay type: toxicity
[3] = target: NACHT, LRR and PYD domains-containing protein 3 (Homo sapiens, UniProt Q96P20); assay: Inhibition of NLRP3 inflammasome in LPS-stimulated human monocyte derived macrophages assessed as reduction in NLRP3 inflammasome-induced IL-1beta production preincubated for 30 mins followed by NLRP3 stimulation with ATP for 1 hr by ELISA
[4] = Drug level in human liver microsomes treated with 5 uM MCC950 preincubated for 20 mins followed by NADPH addition measured after 120 mins by HPLC/ESI-SRM-MS/MS analysis; assay type: ADME; settings: 2 h
[5] = Drug level in human liver microsomes treated with 5 uM MCC950 preincubated for 20 mins followed by NADPH addition measured after 120 mins by QTOF-ESI-MS/MS analysis; assay type: ADME; settings: 2 h
[6] = Drug metabolism in human liver microsomes assessed as N-((1-hydroxy-1,2,3,5,6,7-hexahydro-s-indacen-4-yl)carbamoyl)-4-(2-hydroxypropan-2-yl)furan-2-sulfonamide formation at 5 uM preincubated for 20 mins followed by NADPH addition measured after 120 mins by HPLC/ESI-SRM-MS/MS analysis; assay type: ADME; settings: 2 h
[7] = Drug metabolism in human liver microsomes assessed as R-(+)- N-((1-hydroxy-1,2,3,5,6,7-hexahydro-s-indacen-4-yl)carbamoyl)-4-(2-hydroxypropan-2-yl)furan-2-sulfonamide formation at 5 uM preincubated for 20 mins followed by NADPH addition measured after 120 mins by HPLC/ESI-SRM-MS/MS analysis; assay type: ADME; settings: 2 h
[8] = Drug metabolism in human liver microsomes assessed as R-(+)- N-((1-hydroxy-1,2,3,5,6,7-hexahydro-s-indacen-4-yl)carbamoyl)-4-(2-hydroxypropan-2-yl)furan-2-sulfonamide formation at 5 uM preincubated for 20 mins followed by NADPH addition measured after 120 mins by QTOF-ESI-MS/MS analysis; assay type: ADME; settings: 2 h

Chain of NACHT, LRR and PYD domains-containing protein 3 (Q96P20 whole entry, the tested form may be a part): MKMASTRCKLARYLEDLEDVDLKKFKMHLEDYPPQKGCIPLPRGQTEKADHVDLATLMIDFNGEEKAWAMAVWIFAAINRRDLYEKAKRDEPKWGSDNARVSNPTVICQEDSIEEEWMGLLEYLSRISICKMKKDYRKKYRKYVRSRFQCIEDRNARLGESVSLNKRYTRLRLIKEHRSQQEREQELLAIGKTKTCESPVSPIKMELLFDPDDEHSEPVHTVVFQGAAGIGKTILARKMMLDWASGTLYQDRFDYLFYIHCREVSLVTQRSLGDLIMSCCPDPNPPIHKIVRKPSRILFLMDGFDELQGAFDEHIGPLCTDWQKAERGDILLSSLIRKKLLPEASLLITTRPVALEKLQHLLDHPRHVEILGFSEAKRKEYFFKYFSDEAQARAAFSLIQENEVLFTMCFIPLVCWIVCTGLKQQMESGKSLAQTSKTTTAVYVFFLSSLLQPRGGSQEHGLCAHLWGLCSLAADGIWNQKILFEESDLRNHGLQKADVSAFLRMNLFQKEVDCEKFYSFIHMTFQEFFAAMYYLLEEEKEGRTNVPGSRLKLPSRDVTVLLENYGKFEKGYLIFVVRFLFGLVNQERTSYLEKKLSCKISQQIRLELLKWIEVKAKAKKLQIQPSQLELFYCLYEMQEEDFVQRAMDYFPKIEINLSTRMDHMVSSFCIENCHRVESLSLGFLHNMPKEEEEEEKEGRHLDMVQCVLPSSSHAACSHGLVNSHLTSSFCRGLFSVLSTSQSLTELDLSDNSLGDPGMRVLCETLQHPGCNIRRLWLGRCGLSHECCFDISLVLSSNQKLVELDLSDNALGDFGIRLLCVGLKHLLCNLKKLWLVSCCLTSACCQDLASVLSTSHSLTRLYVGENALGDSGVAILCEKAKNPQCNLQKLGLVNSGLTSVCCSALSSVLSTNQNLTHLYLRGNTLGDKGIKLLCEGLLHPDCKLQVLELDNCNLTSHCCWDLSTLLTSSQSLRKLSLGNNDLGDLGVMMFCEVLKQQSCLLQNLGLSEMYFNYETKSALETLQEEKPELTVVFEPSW

Row | Structure (SMILES) | IC50 [3] [µM] | Drug metabolism [4] | Drug metabolism [6] | Drug metabolism [7] | CC50 at 20 h [1] [µM] | CC50 at 20 h [2] [µM] | Drug metabolism [5] | Drug metabolism [8]
1 | CC(C)(O)c1coc(S(=O)(=O)NC(=O)Nc2c3c(cc4c2CCC4O)CCC3)c1 (racemic) | 1.97 | Metabolite_Detected |  |  | > 62.5 | > 62.5 |  | 
2 | CC(C)(O)c1coc(S(=O)(=O)NC(=O)Nc2c3c(cc4c2CC[C@@H]4O)CCC3)c1 | 6.35 |  |  |  |  |  |  | 
3 | CC(C)(O)c1coc(S(=O)(=O)NC(=O)Nc2c3c(cc4c2CCC4)CCC3)c1 |  |  | Metabolite_Detected | Metabolite_Detected | > 62.5 | > 62.5 |  | Metabolite_Detected

More lines, in order of falling IC50 [3], values ahead:

Row | IC50 [3] [µM] | Drug metabolism [4] | Drug metabolism [6] | Drug metabolism [7] | Structure (SMILES) | CC50 at 20 h [1] [µM] | CC50 at 20 h [2] [µM] | Drug metabolism [5] | Drug metabolism [8]
4 | 1.83 |  |  |  | CC(C)(O)c1coc(S(=O)(=O)NC(=O)Nc2c3c(cc4c2CC(O)C4)CCC3)c1 (centres undefined) | > 62.5 | > 62.5 |  | 
5 | 1.24 | Metabolite_Detected |  |  | CC(C)(O)c1coc(S(=O)(=O)NC(=O)Nc2c3c(cc4c2CC[C@H]4O)CCC3)c1 |  |  | Metabolite_Detected | 
6 | 0.232 |  |  |  | CC(C)(O)c1coc(S(=O)(=O)NC(=O)Nc2c3c(cc4c2C(O)CC4)CCC3)c1 (racemic) | > 62.5 | > 62.5 |  | 
